From patent US20230339835A1, “2,3,5-TRIMETHYL-6-NONYLCYCLOHEXA-2,5-DIENE-1,4-DIONE FOR SUPPRESSING AND TREATING ALPHA-SYNUCLEINOPATHIES, TAUOPATHIES, AND OTHER DISORDERS” (PTC THERAPEUTICS, INC., priority 2018, published 2023)

Legend:
[1] = tested on: AD patient fibroblasts AG04402; test: Rescue of AD patient fibroblasts from BSO plus iron-induced oxidative stress, AG04402; assay type: cell-based; conditions: Homo sapiens, Fibroblast
Protocol: (§1) An initial screen was performed to identify the effectiveness of compounds for the amelioration of PD and AD. Test samples and solvent controls were tested for their ability to rescue PD and AD fibroblasts stressed by addition of L-buthionine-(S,R)-sulfoximine (BSO, a specific inhibitor of GSH synthetase) plus iron (e.g. iron citrate), in a similar manner as that described in Jauslin et al., Hum. Mol. Genet. 11(24):3055 (2002), Jauslin et al., FASEB J. 17:1972-4 (2003), and International Patent Application WO 2004/003565. This specific BSO-mediated cell death was prevented or ameliorated by administration of compounds described herein.
(§2) The AD experiments were performed as follows. PD experiments were performed in a similar manner; certain specific conditions are noted below in Table 1A.
(§3) MEM (a medium enriched in amino acids and vitamins) and Medium 199 (M199) with Earle's Balanced Salts (EBS), without phenol red, were purchased from Invitrogen. Fetal Calf Serum was obtained from Corning. […]
(§4) 100 microliters of Calcein AM (1 microM) in PBS+Ca+Mg was then added to each well. […] After that time fluorescence (excitation/emission wavelengths of 485 nm and 525 nm, respectively) was read on a Spectramax fluorescence reader. Data were analyzed using standard four-parameter curve fit algorithms (XLFit or Prism) to determine the EC50 concentration for each compound.

[2] = tested on: AD patient fibroblasts AG11414; test: Rescue of AD patient fibroblasts from BSO plus iron-induced oxidative stress, AG11414; assay type: cell-based; conditions: Homo sapiens, Fibroblast
Protocol: as §1, §2, §3, §4

[3] = tested on: C57Bl/6 mice, MPTP-induced model of PD; test: Mouse MPTP model of Parkinson's Disease, open field locomotor assay; assay type: in vivo; conditions: 300 mg/kg PO QD Day -2 to Day 7, MPTP 60 mg/kg, Day 7
From the text: Animals. Species: Mouse. Strain: C57Bl/6. Source of Animals: Charles River. Age: 6 to 7 weeks. Sex: Male. Randomization: Animals were assigned randomly to treatment groups. Blinding of Study: Experimenters were blinded to the experimental treatments
Housing and Feeding. Acclimation/Conditioning: Not less than three days. Housing: Mice were housed on a 12 hr light/dark cycle (lights on 6:00 AM) No more than 4 mice per cage. Ventilated cage rack system. Diet: Standard rodent chow and water ad libitum.
Design Parameters. Route(s) of administration: PO. Dose Volume: PO: 5 mL/kg. Formulation(s): formulated by Melior according to directions from BioElectron. Vehicle-sesame oil (Spectrum Chemical, NF Catalog #SE130, CAS #8008-74-0). Dose Levels: 300 mg/kg. Dose Frequency: QD starting Day −2 (MPTP=Day 0) and until Day 7. Study duration: 11 days. Pretreatment time (up to 2 hrs): For Day 0 (MPTP Day): 30 min, Pretreatment time for Open Field Assay/Locomotor Activity (OFA/LMA) assay: 1 hr. Number of Groups: 3. Number of animals per group: 10. Total number of animals: 30 (in the study), 42 animals total (To ensure a proper power analysis of at least 10 animals/group, for all groups receiving MPTP, 4 additional animals were added to mitigate study impacts if there were MPTP-induced fatalities).
MPTP Treatment. MPTP was formulated in phosphate buffered saline and administered to mice three times at a dose of 20 mg/kg (1 mg/mL delivered at 20 mL/kg) at two-hour intervals (final dose of MPTP=60 mg/kg).
Locomotor activity. One day prior (baseline) and on Day 7 after MPTP administration (Day (−1) and Day 7), mice were monitored for various aspects of locomotor function using a fully automated open-field apparatus (Med-Associates, Inc). The apparatus consisted of a 10.75″×10.75″ arena enclosed in a sound-attenuated box, equipped with the fan and house light. […]
Data analysis. Data were averaged and are expressed as the average±SEM.
Data were analyzed by one-way ANOVA followed by a post-hoc tests. p-values of less than 0.05 were considered to be statistically significant from control.

[4] = tested on: AD patient fibroblasts ND34730; test: Rescue of AD patient fibroblasts from BSO plus iron-induced oxidative stress, ND34730; assay type: cell-based; conditions: Homo sapiens, Fibroblast
Protocol: as §1, §2, §3, §4

[5] = Iron citrate (100 μM) + BSO (100 μM)
[6] = Iron citrate (200 μM) + BSO (100 μM)

CCCCCCCCCC1=C(C)C(=O)C(C)=C(C)C1=O [Compound C9, 2,3,5-trimethyl-6-nonylcyclohexa-2,5-diene-1,4-dione] showed an EC50 [1, 5] of 5 nM, an EC50 [1, 6] of 12 nM and an EC50 [2, 5] of 11 nM. For the same compound, the EC50 [2, 6] was 23 nM, the “open field locomotor assay (vertical time)” value ([3]; MPTP+Vehicle vs. MPTP+C9 p<0.001) was “restored vertical time” and the “open field locomotor assay (vertical counts)” value ([3]; MPTP+Vehicle vs. MPTP+C9 p<0.01) was “restored vertical counts”. For the same compound, the EC50 ([4]; Iron citrate (50 μM) + BSO (50 μM)) was 15 nM and the EC50 ([4]; Iron citrate (100 μM) + BSO (25 μM)) was 24 nM.
